Test [1] deals with Beta-1 adrenergic receptor (Homo sapiens, UniProt P08588). It is filed as functional.
In a further test the target is D(1A) dopamine receptor (Homo sapiens, UniProt P21728). It is filed as functional, cell-based.
A further test has as its target T1, Endothelin-1 receptor (Homo sapiens, UniProt P25101).
T1 sequence (P25101 whole entry): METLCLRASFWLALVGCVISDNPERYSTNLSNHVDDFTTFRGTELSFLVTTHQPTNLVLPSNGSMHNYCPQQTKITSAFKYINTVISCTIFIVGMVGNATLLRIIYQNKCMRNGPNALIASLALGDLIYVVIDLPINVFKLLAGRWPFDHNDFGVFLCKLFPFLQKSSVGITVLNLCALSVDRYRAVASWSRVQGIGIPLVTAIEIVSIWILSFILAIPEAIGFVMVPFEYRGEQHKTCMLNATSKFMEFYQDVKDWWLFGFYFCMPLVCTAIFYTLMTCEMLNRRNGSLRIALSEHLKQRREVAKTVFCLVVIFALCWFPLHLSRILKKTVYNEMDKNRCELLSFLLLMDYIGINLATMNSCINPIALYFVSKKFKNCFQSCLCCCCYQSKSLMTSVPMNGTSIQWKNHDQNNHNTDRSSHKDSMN

For test [2], the target named is T2, 5-hydroxytryptamine receptor 1A (Homo sapiens, UniProt P08908).
T2 sequence (P08908 whole entry): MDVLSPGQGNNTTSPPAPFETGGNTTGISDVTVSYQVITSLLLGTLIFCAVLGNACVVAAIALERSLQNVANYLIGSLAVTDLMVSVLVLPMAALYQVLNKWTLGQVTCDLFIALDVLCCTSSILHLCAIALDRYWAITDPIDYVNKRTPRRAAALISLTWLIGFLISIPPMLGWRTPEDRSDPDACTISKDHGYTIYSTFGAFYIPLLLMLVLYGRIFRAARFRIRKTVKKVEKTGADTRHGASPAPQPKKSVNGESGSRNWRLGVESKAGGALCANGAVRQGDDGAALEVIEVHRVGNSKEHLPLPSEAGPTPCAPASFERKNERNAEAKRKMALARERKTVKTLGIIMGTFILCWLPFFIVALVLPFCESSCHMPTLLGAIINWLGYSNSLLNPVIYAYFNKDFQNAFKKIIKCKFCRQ
It is filed as functional, cell-based.

Test [3] concerns the target T3, 5-hydroxytryptamine receptor 2C (Homo sapiens, UniProt P28335).
T3 sequence (P28335 whole entry): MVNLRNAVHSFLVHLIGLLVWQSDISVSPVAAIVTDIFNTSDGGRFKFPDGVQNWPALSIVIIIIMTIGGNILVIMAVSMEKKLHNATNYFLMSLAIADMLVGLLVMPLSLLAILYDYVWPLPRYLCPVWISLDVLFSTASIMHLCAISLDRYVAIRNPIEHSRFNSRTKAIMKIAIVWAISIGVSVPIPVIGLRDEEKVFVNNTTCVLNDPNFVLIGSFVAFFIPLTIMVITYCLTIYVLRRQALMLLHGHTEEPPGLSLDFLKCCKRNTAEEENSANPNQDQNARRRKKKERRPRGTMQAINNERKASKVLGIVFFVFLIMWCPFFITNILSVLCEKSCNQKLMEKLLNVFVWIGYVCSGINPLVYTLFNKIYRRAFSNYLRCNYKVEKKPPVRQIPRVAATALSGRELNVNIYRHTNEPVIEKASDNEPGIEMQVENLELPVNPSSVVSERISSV

Another test deals with T4, Glucocorticoid receptor (Homo sapiens, UniProt P04150).
T4 sequence (P04150 whole entry): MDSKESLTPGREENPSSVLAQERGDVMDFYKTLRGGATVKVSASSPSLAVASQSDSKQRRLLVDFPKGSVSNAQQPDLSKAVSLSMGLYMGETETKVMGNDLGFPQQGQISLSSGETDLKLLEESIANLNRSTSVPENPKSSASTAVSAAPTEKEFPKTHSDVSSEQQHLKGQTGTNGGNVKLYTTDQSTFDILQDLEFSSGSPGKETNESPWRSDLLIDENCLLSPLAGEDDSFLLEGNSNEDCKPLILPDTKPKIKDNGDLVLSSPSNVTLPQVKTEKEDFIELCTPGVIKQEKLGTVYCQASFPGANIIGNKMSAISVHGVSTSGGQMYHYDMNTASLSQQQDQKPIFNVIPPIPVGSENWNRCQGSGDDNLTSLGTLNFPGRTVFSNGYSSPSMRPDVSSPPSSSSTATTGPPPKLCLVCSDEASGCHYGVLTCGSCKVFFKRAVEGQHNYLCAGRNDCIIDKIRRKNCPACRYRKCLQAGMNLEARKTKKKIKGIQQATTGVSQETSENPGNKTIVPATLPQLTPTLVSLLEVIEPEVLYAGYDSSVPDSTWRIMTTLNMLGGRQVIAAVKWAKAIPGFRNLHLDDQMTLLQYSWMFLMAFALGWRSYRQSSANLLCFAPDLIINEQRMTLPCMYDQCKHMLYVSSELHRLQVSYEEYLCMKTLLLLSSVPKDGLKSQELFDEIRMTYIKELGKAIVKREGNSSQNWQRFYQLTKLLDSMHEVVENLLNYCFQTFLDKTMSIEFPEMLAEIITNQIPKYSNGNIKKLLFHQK
Further: assay procedure not described here.

Sequence of D(1A) dopamine receptor (P21728 whole entry): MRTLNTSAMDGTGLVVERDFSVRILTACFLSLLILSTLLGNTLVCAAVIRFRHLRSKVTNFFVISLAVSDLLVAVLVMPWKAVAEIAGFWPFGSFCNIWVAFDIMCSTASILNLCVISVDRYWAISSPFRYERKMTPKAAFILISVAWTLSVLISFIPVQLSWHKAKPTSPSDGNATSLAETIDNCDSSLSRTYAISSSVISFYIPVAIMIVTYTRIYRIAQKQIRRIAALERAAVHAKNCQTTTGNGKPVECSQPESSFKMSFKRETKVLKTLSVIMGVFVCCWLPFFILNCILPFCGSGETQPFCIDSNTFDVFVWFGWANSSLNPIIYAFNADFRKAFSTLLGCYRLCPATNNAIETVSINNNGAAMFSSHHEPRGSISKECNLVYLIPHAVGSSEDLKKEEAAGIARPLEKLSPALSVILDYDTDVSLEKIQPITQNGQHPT
Sequence of Beta-1 adrenergic receptor (P08588 whole entry): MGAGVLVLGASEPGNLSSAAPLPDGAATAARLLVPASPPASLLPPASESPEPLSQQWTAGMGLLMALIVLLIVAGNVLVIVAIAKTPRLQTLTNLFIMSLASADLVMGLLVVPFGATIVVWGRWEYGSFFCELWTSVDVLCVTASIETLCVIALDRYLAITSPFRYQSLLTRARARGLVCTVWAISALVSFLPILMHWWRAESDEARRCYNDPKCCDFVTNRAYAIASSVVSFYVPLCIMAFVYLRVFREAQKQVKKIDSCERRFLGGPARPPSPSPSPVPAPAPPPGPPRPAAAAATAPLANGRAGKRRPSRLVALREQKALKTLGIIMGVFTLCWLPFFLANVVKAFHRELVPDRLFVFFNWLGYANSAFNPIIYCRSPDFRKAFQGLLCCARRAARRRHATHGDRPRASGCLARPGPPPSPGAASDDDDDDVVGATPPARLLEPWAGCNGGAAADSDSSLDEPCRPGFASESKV

In the case of `O=C(O)CCCCCCNC1c2ccccc2CCc2ccccc21` [AMINEPTINE], the concentration at half-maximal activity (AC50) in test [1] was > 30 µM; on D(1A) dopamine receptor, > 30 µM; at Endothelin-1 receptor, > 30 µM; in test [2], > 30 µM; in test [3] it was 0.17 µM; at Glucocorticoid receptor it was > 30 µM.

On to `COc1ccccc1OCCNCC(O)c1ccc(C)c(S(N)(=O)=O)c1` (stereo unspecified) [AMOSULALOL], for which the AC50 was 0.06 µM in test [1]; > 30 µM on D(1A) dopamine receptor; > 30 µM at Endothelin-1 receptor; 0.16 µM in test [2]; > 30 µM in test [3]; > 30 µM on Glucocorticoid receptor.

Take `CCCCc1ncc(/C=C(\Cc2cccs2)C(=O)O)n1Cc1ccc(C(=O)O)cc1` [EPROSARTAN]: the AC50 was > 10 µM in test [1]; > 30 µM on D(1A) dopamine receptor; > 30 µM on Endothelin-1 receptor; > 10 µM in test [2]; > 10 µM in test [3]; > 30 µM on Glucocorticoid receptor.

Consider `COc1ccc(CCN(C)CCCC(C#N)(c2cc(OC)c(OC)c(OC)c2)C(C)C)cc1OC` (stereo unspecified) [GALLOPAMIL], for which the AC50 in test [1] is > 30 µM; on D(1A) dopamine receptor, > 30 µM; on Endothelin-1 receptor it was > 30 µM; in test [2] it was 11 µM; in test [3], 5 µM; on Glucocorticoid receptor, > 30 µM.

On to `CCC(C(=O)O)c1ccc(N2Cc3ccccc3C2=O)cc1` (stereo unspecified) [INDOBUFEN], for which the AC50 is > 30 µM in test [1]; > 30 µM at D(1A) dopamine receptor; > 30 µM at Endothelin-1 receptor; 1.9 µM in test [2]; > 30 µM in test [3]; > 30 µM at Glucocorticoid receptor.

Regarding `CC(C)OC(=O)CCC/C=C\C[C@@H]1[C@@H](CC[C@@H](O)CCc2ccccc2)[C@H](O)C[C@@H]1O` [LATANOPROST], the AC50 (in test [1]; at D(1A) dopamine receptor; on Endothelin-1 receptor; in test [2]; in test [3]; on Glucocorticoid receptor) was > 30 µM each time.

Take `CN1C(=O)C(O)N=C(c2ccccc2Cl)c2cc(Cl)ccc21` (stereo unspecified) [LORMETAZEPAM]: the AC50 (in test [1]; at D(1A) dopamine receptor; on Endothelin-1 receptor; in test [2]; in test [3]; on Glucocorticoid receptor) was > 30 µM each time.

With `CCC1(CC)C(=O)NCC(C)C1=O` (stereo unspecified) [METHYPRYLON], the AC50 (in test [1]; at D(1A) dopamine receptor; at Endothelin-1 receptor; in test [2]; in test [3]; on Glucocorticoid receptor) was > 30 µM each time.

In the case of `COc1ccc2c3c1O[C@H]1C(=O)CC[C@@]4(O)[C@@H](C2)N(C)CC[C@]314` [OXYCODONE], the AC50 (in test [1]; at D(1A) dopamine receptor; on Endothelin-1 receptor; in test [3]; at Glucocorticoid receptor) was > 30 µM throughout.

Consider `O=C(O)/C=C/c1ccc(Cn2ccnc2)cc1` [OZAGREL], for which the AC50 (in test [1]; on D(1A) dopamine receptor; on Endothelin-1 receptor; in test [2]; in test [3]; at Glucocorticoid receptor) was > 30 µM each time.

`Clc1ccc(CCCOCCCN2CCCCC2)cc1` [PITOLISANT]: the AC50 (in test [1]; on D(1A) dopamine receptor; at Endothelin-1 receptor; in test [2]; in test [3]; on Glucocorticoid receptor) was > 30 µM in each case.

`CCCN(CCC)C(=O)C(CCC(=O)O)NC(=O)c1ccccc1` (stereo unspecified) [PROGLUMIDE]: the AC50 in test [1] was > 30 µM; on D(1A) dopamine receptor, > 30 µM; at Endothelin-1 receptor, > 30 µM; in test [2], > 10 µM; in test [3], > 30 µM; on Glucocorticoid receptor, > 30 µM.

With `O=C(NCCNCC(O)COc1ccc(O)cc1)N1CCOCC1` (stereo unspecified) [XAMOTEROL], the concentration at half-maximal activity (AC50) (on D(1A) dopamine receptor; on Endothelin-1 receptor; in test [2]; in test [3]; at Glucocorticoid receptor) was > 30 µM in each case.
